Data set [1] concerns MEF, HepG2 and Jurkat cells. Put plainly: Cell viability, CellTiter-Glo 2.0. The data set is classed as cell-based. How it is done: For cell viability experiments using the CellTiter-Glo® 2.0 system (Promega), MEF cells (1.2×10^3 cells/well), HepG2 cells (4×10^3 cells/well) and Jurkat T-cells (5×10^3 cells/well) were seeded in 384 well plates. After 18 hours, cells were treated with compounds using the Sciclone G3 automation system. After 6 or 24 hours incubation, the luciferase measurement was performed according to the manufacturer's manual.

The subject of data set [2] is Collagen-Induced Arthritis, DBA1/J mice. Put plainly: Collagen-Induced Arthritis (CIA) model. Format: in vivo, mouse. How it is done: In order to test the potential of C25-140 to ameliorate RA symptoms, a Collagen-Induced Arthritis (CIA) Model in DBA1/J mice was performed by Washington Biotechnology, Inc. (Baltimore, USA). Each group of ten mice was subjected to a single subcutaneous injection of collagen/complete Freund's Adjuvant emulsion (0.05 ml/mouse; 100 μg collagen/CFA). After 20 days (day 21), mice were booster injected with collagen (0.05 ml/mouse; 100 μg/mouse collagen in Incomplete Freund's Adjuvant). On day 28, mice were scored for their Arthritic Index (AI) and 14 days intraperitoneally dosed twice daily with 6 mg/kg, 10 mg/kg and 14 mg/kg C25-140, respectively. Mice were scored of macroscopic signs of arthritis daily. Thereby, the following scoring index was applied to each individual paw: 0=no visible effects of arthritis; 1=edema and/or erythema of 1 digit; 2=edema and/or erythema of 2 digits; 3=edema and/or erythema of more than 2 digits; 4=severe arthritis of entire paw and digits. Single paw scores were added and recorded. On day 42, animals were euthanized, limbs were collected and histopathology was performed using Toluidine blue staining with scoring of several parameters.

In a further data set the target is T1, TRAF6 (Homo sapiens, UniProt Q9Y4K3).
T1 construct: made in house
T1 sequence (Q9Y4K3 50-159 limits assumed, species assumed): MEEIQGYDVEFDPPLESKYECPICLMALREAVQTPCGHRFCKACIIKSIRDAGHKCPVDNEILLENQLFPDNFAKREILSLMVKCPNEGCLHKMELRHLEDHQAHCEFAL
Briefly: In vitro ubiquitination assay (Western blot), TRAF6 with Ubc13/Uev1a. The data set is classed as biochemical. On the procedure:
The ability of TRAF6 to form K63-linked poly-ubiquitin chains in conjunction with Ubc13 was analyzed after compound treatment. Therefore, untagged TRAF6WT and TRAF6D57K, respectively were recombinantly purified. 0.125 μM of TRAF6 protein was pre-incubated with DMSO or compound in a total volume of 100 μL in K63 assay buffer (25 nM Tris-HCl pH 7.6; 250 nM MgCL2; […] creatine phosphate; 0.3 U/mL inorganic pyrophosphatase; 0.3 U/mL creatine phosphokinase) for 30 minutes at room temperature. Small aliquots for input samples were taken. A master mix containing 0.01 μM E1-activating enzyme (UBE1) (Boston Biochem), 0.2 μM E2-conjugating enzyme complex (Ubc13/Uev1a) (Boston Biochem), 1 mM ZnCl2, 2 mM ATP und 4 μM mono-ubiquitin (Boston Biochem) was added to the TRAF6 protein and the reaction mixture was incubated for 120 minutes at 37° C. The reaction was stopped by adding 4×SDS loading buffer and boiling at 95° C. for 5 minutes. The input samples were analyzed using the Pierce Silver Stain Kit (Thermo Fisher Scientific). Ubiquitination was detected in Western Blot analysis using an ubiquitin antibody.

Another data set relates to IKK kinase activity. Briefly: IKK kinase assay in Jurkat T-cells. The data set is classed as cell-based, human. Conditions: PMA/Ionomycin. How it is done:
For MEF cells, 5.5×10^5 cells were seeded, then treated with compound for 6 hours and eventually stimulated with IL-1β or TNFα for 8 minutes. 1×10^6 Jurkat T-cells were treated with compound for 6 hours and finally stimulated with PMA (400 ng/ml) and lonomycin (600 ng/ml) for 8 minutes. After cell lysis in Co-IP lysis buffer (150 mM NaCl; 25 mM Hepes (pH 7.5); 0.2% NP-40; 1 mM Glycerol; 10 mM NaF; 8 mM β-Glycerophosphat; 1 mM DTT; 300 μM Sodium-vanadate; complete protease inhibitor), input samples were taken and the supernatant was then incubated with 6 μL IKKγ antibody FL-419 (Santa Cruz Biotechnology). Upon incubation with Protein-G-Sepharose beads (GE Healthcare), beads were washed in Co-IP wash buffer (150 mM NaCl; 25 mM Hepes (pH 7.5); 0.2% NP-40; 1 mM Glycerol) and transferred into kinase reaction buffer ([…] HEPES pH7.9; 10 mM MgCl2; 20 μM ATP; 20 mM β-Glycerophosphat; 200 μM Sodium-Vanadate; 1 mM DTT) supplemented with […] GST-IκBα (1-53) and 0.5 μL ^32P-γ-ATP. After 30 minutes incubation at 37° C., reaction was stopped and analyzed by autoradiography as well as Western Blot after separation on SDS-PAGE.

The subject of another data set is IL-2 and TNFα. Briefly: ELISA cytokine secretion of Jurkat T-cells. Conditions: PMA/Ionomycin. Format: cell-based, human. On the procedure: For measurement of cytokine secretion, 2×10^5 Jurkat T-cells or primary CD4^+ T-cells or human PBMCs per sample were seeded, treated with compound for 6 hours and stimulated as indicated. 20 hours after stimulation, supernatants were harvested and analyzed with the IL-2, IL-1β and TNFα Ready-Set-Go! ELISA (2nd Generation) kits provided by Affymatrix eBioscience.
A general note: In an ELISA, binding on a coated surface is turned into a signal by an enzyme label.

The next data set addresses T2, clAP1 (Homo sapiens, UniProt Q13490).
T2 construct: purchased Boston Biochem one of K-102, K-260, K-200B, K-220, K-240, K-270
Briefly: In vitro ubiquitination assay, clAP1. Format: biochemical. Conditions: RING E3 ligase; K63 chain formation. How it is done: For analysis of clAP1, MDM2, TRIM63, RNF4, ITCH and E6AP mediated poly-ubiquitination, the respective ubiquitin ligase kit from Boston Biochem (K-102, K-260, K-200B, K-220, K-240 and K-270) was used. Here, reaction buffer, E1, E2 and E3 enzyme (and p53 substrate in case of MDM2) were mixed and pre-incubated with compound or DMSO for 5 minutes at room temperature before adding Mg^2+-ATP and mono-ubiquitin for reaction start. Ubiquitination was visualized by Western Blot analyses.

Data set [3] is described as follows: Pharmacokinetic studies IV, PO, IP. The data set is classed as in vivo. Particulars: for half-life: read-out: in vivo half-life in circulation. How it is done:
All ADME (plasma stability, plasma protein binding, microsomal stability, Log D, Caco-2 assay, CYP450 inhibition and hERG predictor assay) as well as pharmacokinetic studies (Tmax, Cmax, AUC0-240 min, Mean Residence Time, Elimination half life, Elimination rate constant, Volume of Distribution and Clearance) of C25-140 (compound 3) were conducted by Bienta Enamine Biology Services of Bienta/Enamine Ltd.
The inventors also tested the pharmacokinetics (PK) of C25-140 after intravenous (IV), peroral (PO) and intraperitoneal (IP) injection of each 10 mg/kg compound. All the analyzed data are summarized in FIG. 9B and the concentration/time-course graph for IP administration is shown in FIG. 9C.

Where two headings read alike, the source gives them in different places.

T2 sequence (Q13490 whole entry): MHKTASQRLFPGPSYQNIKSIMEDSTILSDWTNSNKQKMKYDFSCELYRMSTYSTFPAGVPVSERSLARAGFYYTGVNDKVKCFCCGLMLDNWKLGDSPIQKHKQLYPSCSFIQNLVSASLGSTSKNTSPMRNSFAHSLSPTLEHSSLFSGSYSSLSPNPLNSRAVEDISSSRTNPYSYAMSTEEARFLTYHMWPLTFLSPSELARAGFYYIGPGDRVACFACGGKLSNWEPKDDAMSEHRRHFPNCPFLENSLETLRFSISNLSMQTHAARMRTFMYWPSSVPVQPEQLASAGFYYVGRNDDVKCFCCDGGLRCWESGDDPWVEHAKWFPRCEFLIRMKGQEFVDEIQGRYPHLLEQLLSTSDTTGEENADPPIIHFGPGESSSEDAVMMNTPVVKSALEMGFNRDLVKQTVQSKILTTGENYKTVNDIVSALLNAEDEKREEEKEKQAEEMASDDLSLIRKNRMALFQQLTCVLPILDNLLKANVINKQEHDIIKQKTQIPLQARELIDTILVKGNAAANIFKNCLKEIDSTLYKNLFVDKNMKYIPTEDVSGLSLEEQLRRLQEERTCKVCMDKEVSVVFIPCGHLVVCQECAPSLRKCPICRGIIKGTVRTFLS

For orientation: half-life means the time needed for the level to fall by half in the phase considered. What is called bioavailability is the share of a dose that reaches the circulation, judged against a reference dose that is usually intravenous. On to `Cc1nn(-c2ccc3nnc(C)n3n2)c(C)c1CCC(=O)N1CCC(Cc2ccccc2)CC1` [Compound 3, 1-(4-benzylpiperidin-1-yl)-3-(3,5-dimethyl-1-(3-methyl-[1,2,4]triazolo[4,3-b]pyridazin-6-yl)-1H-pyrazol-4-yl)propan-1-one], for which, in data set [1] (100 μM, 24 hours), the “cell viability at highest dose” value is reported as “toxicity is noticeable”. The “metabolic activity and cell viability” value in data set [1] (up to 50 μM, 24 hours incubation, MEF, HepG2, Jurkat) is reported as “does not considerably affect”. The “arthritic index (AI)” value in data set [2] (10 mg/kg and 14 mg/kg IP twice daily, 14 days) is recorded as “almost completely ameliorated”. Also, the “histology of limbs (summed scores, inflammation, pannus, cartilage damage, bone resorption)” value in data set [2] (6, 10, 14 mg/kg IP twice daily) was “dose-dependently improves”. For the same molecule, in data set [2] (throughout the study), the body weight result is “did not show any signs of reduction”. The “TRAF6 E3 ligase activity to form poly-ubiquitin chains” value at TRAF6 is recorded as “dose-dependently diminished”. Further, the IKK kinase activity result in the data set with IKK kinase activity was “diminished”. Moreover, the “cytokine secretion of IL-2 and TNFα” value in the data set on IL-2 and TNFα was “dose-dependently decreased”. Also, the “auto-ubiquitination of clAP1” value on clAP1 is “dose-dependently diminished”. In data set [3] (10 mg/kg), the “adverse effects on animals during PK studies” value was “no obvious adverse effects”. The distribution phase result in data set [3] (IV, PO, IP 10 mg/kg) is reported as “rapid initial distribution phase”. Further, the half-life turned out to be 1.33 h in data set [3] (in vivo, iv, 10 mg/kg); 2.12 h in data set [3] (in vivo, po, 10 mg/kg); 3.07 h in data set [3] (in vivo, IP administration, 10 mg/kg). For the same molecule, the bioavailability in data set [3] (in vivo, po, calculated, 10 mg/kg) was roughly 45%.

Source of the values: patent publication US11001591B2, “TRAF 6 inhibitors” (HELMHOLTZ ZENTRUM MUENCHEN—DEUTSCHES FORSCHUNGSZENTRUM FÜR …, priority 2016, dated 2021).
